Values of other authors in patent publication US20040176378A1, “Compositions of a cyclooxygenase-2 selective inhibitor and an amphetamine for the treatment of reduced blood flow to the central nervous system” (Pharmacia Corporation, priority 2003, published 2004).

Legend:
human stroke victims = conditions: coupled with physical therapy, compared to stroke victims receiving only physical therapy

Question: Which results are given for `CC(N)Cc1ccccc1` (centres unmarked) [amphetamine]?
Answer: alternative circuit activation (infarcted rats): promoted alternative circuit activation; motor recovery (human stroke victims): accelerated motor recovery
